Results: patent publication US20090136561A1, “Non-peptidyl agents with pHSP20-like activity, and uses thereof” (Prolexys Pharmaceuticals, Inc., priority 2004, published 2009)
pIC50: −log10 of the molar value. Several values for one entry are separate records, joined by “and”; a condition that tells them apart may be missing. Identical values can stand only once. Entries after “also recorded” stand apart in the source; their conditions may differ. Non-standard residues stand in square brackets, D forms with d. Residues, ends and D or L forms follow the SMILES beside them. pS = N[C@@H](COP(=O)(O)O)C(=O)O

Tests used:
[1] = target: T1, interaction between 14-3-3γ and pHSP20 (Homo sapiens, UniProt P61981); experiment: Fluorescence polarization assay of 14-3-3γ / fluorescein-labeled pHSP20 peptide (WLRRApSAP) interaction; type: binding; settings: for inhibition of interaction between 14-3-3γ and pHSP20: dose response, FIG. 9; for pIC50: multiple concentrations, FIG. 10
T1 sequence (P61981 1-247): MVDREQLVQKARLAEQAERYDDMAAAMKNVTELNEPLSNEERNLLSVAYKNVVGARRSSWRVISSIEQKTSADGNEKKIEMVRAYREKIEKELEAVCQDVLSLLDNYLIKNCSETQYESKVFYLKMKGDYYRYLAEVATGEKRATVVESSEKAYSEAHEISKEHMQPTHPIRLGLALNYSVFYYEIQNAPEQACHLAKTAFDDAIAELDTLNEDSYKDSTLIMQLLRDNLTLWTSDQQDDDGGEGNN
Protocol: The ability of compounds (a)-(k) to inhibit the interaction between 14-3-3γ and pHSP20 was determined by a fluorescence polarization (FP) assay. […] The initial screen for inhibitors examined approximately 50,000 compounds in the DiverSet library (ChemBridge, San Diego). Initial compound screening was carried out by first mixing peptide and individual compounds followed by addition of protein to a final volume of 15 ul. The final concentrations of each component were: 57.4 nM peptide, 10 uM compound, 5% DMSO, 1.5 uM 14-3-3 gamma, 0.01 M HEPES pH 7.4, 0.15 M NaCl, 3 mM EDTA, 0.005% Tween 20, 10 mM MnCl2, 9.33 mM Tris (7.5), and 0.0093% NaN3.
The ability of compounds (l) and (m) to inhibit the interaction between 14-3-3γ and pHSP20 was determined by a fluorescence polarization (FP) assay as described in Example 4, except that the compound was measured at multiple concentrations.

[2] = tested on: Primary human airway smooth muscle cells; experiment: Spontaneous bead motion (MSD) of RGD-coated microbeads on airway smooth muscle cells; type: cell-based; settings: for effect on bead motion: formulated with 4% cyclodextrin, 10-15 minutes incubation
Protocol: Primary human airway smooth muscle cells were isolated from healthy individuals and cultured to passage 3-6. The cells were grown to confluence, and then serum deprived for 24 hours. The serum-deprived cells were plated on plastic wells coated with collagen.
After the cells were plated, RGD-coated microbeads were added. […] Consequently, the movement of the cells can be determined by monitoring the motion of the microbeads. In this assay, the rate of spontaneous bead motions (i.e., cell motion) depends upon the rate of reorganization of the actin cytoskeleton.
The position of each bead was recorded using video microscopy. The two-dimensional trajectory of bead motion are expressed as a mean square displacement (MSD) as a function of time: […]
where ri(t) is the distance of the ith bead at time t relative to its position at time 0.
The spontaneous bead motion in each sample of cells was first measured for 5 minutes. […] Spontaneous bead motions were then measured for another 5 minutes.

[3] = tested on: Primary human airway smooth muscle cells; experiment: Magnetic twisting cytometry, cell stiffness (storage modulus G'); type: cell-based; settings: for change of cell stiffness (storage modulus): controls, measured over 10 minutes
Protocol: Primary human airway smooth muscle cells were isolated from healthy individuals and cultured to passage 3-6. The cells were grown to confluence, and then serum deprived for 24 hours. The serum-deprived cells were plated on plastic wells coated with collagen. After the cells were plated, RGD-coated microbeads were added. As described by Wang et al. Science 260:1124-1127, 1993, the microbeads become tightly anchored to the cell cytoskeleton. Consequently, the movement of the cells can be determined by monitoring the motion of the microbeads.
Once the cells were attached to the microbeads, the beads were magnetized using a magnetizing coil and twisted using a twisting coil, which generates an oscillating magnetic field at 0.7 Hz. The bead displacement is measured using video microscopy at 83 ms intervals. The amplitude of bead displacement is dependent on several factors, but generally the displacement is directly proportional to cell stiffness. The cell stiffness is expressed as a change of storage modulus (G′) over time (Maksym et al., J. Appl. Physiol. 89: 1619-1632, 2000).
The cell stiffness for control experiments and experiments using peptides was measured over 10 minutes. The peptides were added 1 minute after the start of the experiment. The cell stiffness for non-peptidyl compounds of the invention was measured for 1 minute, stopped, compound added and stiffness was measured for another 10 minutes.

[4] = tested on: Bovine coronary artery rings; experiment: Contraction/dilation of serotonin-treated bovine coronary artery rings; type: cell-based; settings: for effect on the rings: cyclodextrin formulation, serotonin treated, 30 minutes after treatment
Protocol: Bovine coronary artery rings were treated with compositions containing only cyclodextrin or formulations of cyclodextrin in combination with a pHSP20 peptide, compound (m) or compound (n). The contraction of the rings was measured over time after treatment with serotonin and one of the formulations above. Each of the formulations was tested at several concentrations, with the exception of the pHSP20 peptide.

[5] = tested on: 14-3-3 proteins; experiment: Pull-down with bead-immobilized peptides from HEK293 whole cell lysate, SDS-PAGE and MS analysis; type: binding, human; settings: peptide immobilized on Affigel 10 beads
Protocol: To determine if the pHSP20 peptide binds to 14-3-3, pull-down experiments were conducted with pHSP20 and its analogues, aHSP20 and scrHSP20, linked to NHS activated Affigel 10 beads. As an additional control, activated beads were also reacted with ethanolamine. Each of the bead-bound peptide samples and the ethanolamine control were then separately incubated for 1.5 h at 4° C. with a whole cell lysate derived from HEK293 cells. After thoroughly washing the beads, each of the four sets of beads was eluted with a 100 μM solution of the free peptide corresponding to the one immobilized on the beads; the ethanolamine control beads were eluted with pHSP20. Approximately 15% of the eluate volume was run on an SDS-PAGE gel, while the remainder of the eluate was precipitated with ethanol and then analyzed by a 2D-LC shotgun MS method (Washburn et al., 2001, Nat. Biotechnol. 19:242).
The N-terminal amino group of the peptides was utilized for the immobilization to N-hydroxysuccinimide activated Affi-Gel 10 beads (Biorad, Hercules, Calif.). For the immobilization, 60 μg of each peptide, dissolved in dimethylformamide (DMF), was incubated for 4 h with 100 μl beads and 0.14 μmol triethylamine (Sigma, St. Louis, Mo.). The final volume during the immobilization was 400 μl. […] The release of the ivDde group was monitored by measuring the absorption at 290 nm. […]

[6] = target: T2, 14-3-3 gamma isoform (Homo sapiens, UniProt P61981); experiment: Biacore competition: 14-3-3 gamma flowed over immobilized pHSP20 peptide in presence of competing peptides; type: binding; settings: free peptide as competitor
T2 construct: GST-His (E23) or Biotin-His (E25)
T2 sequence (P61981 1-247): T1 sequence (P61981 1-247)
Protocol: To determine the relative binding affinity between various truncated versions of the pHSP20 (phosphorylated HSP20) peptide and the 14-3-3 gamma isoform, Applicants employed Biacore binding assays and the experiments were set up as follows. The pHSP20 peptide used in the original experiments (e.g., WLRRAp[…]) was immobilized to a Biacore chip and competition experiments were performed by flowing a 14-3-3 gamma isoform protein over the chip in the presence of different pHSP20 truncation variants. The pHSP20 truncation variants included: a) pHSP20 (positive control); b) HSP20 (unphosphorylated pHSP20, negative control); c) RRApSAP (minimal 14-3-3 consensus binding sequence); d) WLRRApSAP; e) RRApSAPLP; f) RRAp[…]; g) WLRRApSAPLP.
Competition experiments were done whereby the only variable between experiments is the identity of the competing peptide.

[7] = tested on: 14-3-3 isoforms (YWHAG, YWHAH, YWHAE, YWAHB, YWHAZ); experiment: Biacore binding of tagged 14-3-3 isoforms to immobilized pHSP20 peptide; settings: E23- and E25-tagged 14-3-3 proteins
Protocol: To further determine binding specificity of the pHSP20 peptide for each 14-3-3 isoform, similar binding experiments were carried out with each 14-3-3 isoform. Various 14-3-3 isoforms were either tagged with GST-His (referred to as “E23”) or tagged with Biotin-His (referred to as “E25”). The E23-14-3-3 proteins (tagged with GST-His) bound much better than the E25-14-3-3 proteins (tagged with Biotin-His). Similar effects were detected by using a version of YWHAG (also referred to as 14-3-3γ) in which the GST tag was proteolytically removed. […] It is believed that the GST either has a chaperone or stabilizing effect on YWHAG or it promotes the formation of dimers of YWHAG which could have different binding properties to pHSP20. Further experiments are planned to elucidate this discrepancy.

CC(C)(C)c1nc(Nc2ccccc2)s[n+]1C=C(Cl)Cl [(a)]
inhibition of interaction between 14-3-3γ and pHSP20 [1]: able to largely inhibit interaction

COc1ccccc1Nc1nc(-c2ccccc2)[n+](-c2ccccc2)s1 [(j)]
inhibition of interaction between 14-3-3γ and pHSP20 [1]: able to largely inhibit interaction

O=C(N/N=C/c1cc(O)ccc1Br)c1ccncc1 [(o)]
effect on bead motion [2]: not conclusive

c1ccc(CNc2nc(-c3ccccc3)[n+](-c3ccccc3)s2)cc1 [compound (f)]
inhibition of interaction between 14-3-3γ and pHSP20 [1]: able to largely inhibit interaction | effect on bead motion [2]: clearly increases bead motion | change of cell stiffness compared to the cyclodextrin control ([3]; solubilized with cyclodextrin, 10 minutes after addition): particular striking

O=[N+]([O-])C1=Cc2cc(Br)cc(Br)c2OC1c1c(Cl)cccc1Cl (stereo not drawn) [compound (l)]
pIC50 [1]: ~4.49

O=C(N/N=C/c1ccc(O)c(O)c1O)c1ccncc1 [compound (m)]
pIC50 [1]: ~4.87 | duration of vasodilatory effect compared with pHSP20 peptide [4]: longer than that of the pHSP20 peptide | vasodilatory effect at 40 minutes after treatment [4]: no significant decrease in the vasodilatory effect | effect on the rings [4]: vasodilatory effect | effect on bead motion [2]: not conclusive

COc1ccc(/C=N/NC(=O)c2cncc(Br)c2)c(OC)c1OC [compound (n)]
duration of vasodilatory effect compared with pHSP20 peptide [4]: longer than that of the pHSP20 peptide | vasodilatory effect at 40 minutes after treatment [4]: no significant decrease in the vasodilatory effect | effect on the rings [4]: vasodilatory effect | effect on bead motion [2]: not conclusive

NCCc1c[nH]cn1 [histamine]
change of cell stiffness (storage modulus) [3]: increased the cell stiffness

CC(C)NCC(O)c1ccc(O)c(O)c1 (stereo not drawn) [isoproterenol]
change of cell stiffness (storage modulus) [3]: decreased the stiffness

CC(C)C[C@H](NC(=O)CNC(=O)[C@@H]1CCCN1C(=O)[C@H](CC(C)C)NC(=O)[C@@H]1CCCN1C(=O)[C@H](C)NC(=O)[C@H](COP(=O)(O)O)NC(=O)[C@H](C)NC(=O)[C@H](CCCNC(=N)N)NC(=O)[C@H](CCCNC(=N)N)NC(=O)[C@H](CC(C)C)NC(=O)[C@@H](N)Cc1c[nH]c2ccccc12)C(=O)N[C@@H](CO)C(=O)N[C@@H](CCCCN)C(=O)O [pHSP20 peptide] (H-WLRRA[pS]APLPGLSK-OH; N-terminus and C-terminus assumed)
binding of 14-3-3 proteins in pull-down [5]: binds to 14-3-3 proteins | competition with immobilized pHSP20 peptide for binding to 14-3-3γ [6]: binding of 14-3-3 to the pHSP20 ligand is decreased | isoform specificity for the pHSP20 peptide [7]: YWHAG>YWHAH>YWHAE=YWAHB=YWHAZ and 14-3-3γ (YWHAG) and 14-3-3η (YWHAH) bind stronger than the other 14-3-3 isoforms

O=[As]O [sodium arsenite, reference compound]
effect on bead movement ([2]; 200 μM, negative control): decrease in bead movement

RRApSAP
competition with immobilized pHSP20 peptide for binding to 14-3-3γ [6]: competed better than the original pHSP20 sequence; also recorded: higher binding affinity to 14-3-3 gamma than the original pHSP20 peptide; also recorded: strong competition

WLRRApSAP
competition with immobilized pHSP20 peptide for binding to 14-3-3γ [6]: higher binding affinity to 14-3-3 gamma than the original pHSP20 peptide; also recorded: strong competition
